Experimental data from US20240350481A1, “USE OF N-MYRISTOYL TRANSFERASE (NMT) INHIBITORS IN THE TREATMENT OF CANCER, AUTOIMMUNE DISORDERS, AND INFLAMMATORY DISORDERS” (PACYLEX PHARMACEUTICALS INC., priority 2020, published 2024).

How the values were obtained:
Assay type in all cases: cell-based
[1] = tested on: hematological cancer cell lines; assay: Viability of hematological cancer cell lines in vitro (assay not given); conditions: most hematological cancer cell lines in vitro
[2] = T cell viability by flow cytometry; conditions: human, purified T cells from healthy donors; for viability at 4 days, 20 nM: Drug 20 nM; for viability at 4 days, 100 nM: Drug 100 nM; for viability at 4 days, 500 nM: Drug 500 nM
Experimental: Human peripheral blood mononuclear cells (PBMC) and purified T cells from healthy donors were purchased from […] Technologies (CA). Cells (7.5×10^6/ml) were cultured in the RPMI supplementing with 10% heat-inactivated fetal bovine serum (vWR), 1% penicillin/streptomycin (SigmaMillipore), 1% sodium pyruvate, and 1% non-essential amino acids (Gibco) in 24 well plates in the presence of 100 IU/ml interleukin 2 ([…] Technologies or HIV reagent program (managed by ATCC).
Then, cells were induced with T cell activator ([…]) in the presence of the drugs for 2 more days. After 4 days, the viability of treated T cells was analyzed using Flow cytometry. The supernatants for both PBMC and T cells were collected for further analysis.

[3] = tested on: BL2 cells; assay: Click chemistry, total protein myristoylation; conditions: 1 hr treatment
Experimental: Protein from the resulting cell lysates were reacted with 100 μM azido-biotin using click chemistry and processed as described in Yap et al.^47 and Perinpanayagam et al.^33

Cc1c(N[S+](=O)([O-])c2c(Cl)cc(-c3ccnc(N4CCNCC4)c3)cc2Cl)c(CC(C)C)nn1C [PCLX-001]
IC50 [1]: 50 to 100 nM | viability at 4 days, 20 nM ([2]; T cells viability (#1)): 9% | viability at 4 days, 100 nM ([2]; T cells viability (#1)): 8% | viability at 4 days, 500 nM ([2]; T cells viability (#1)): 10% | viability at 4 days, 20 nM ([2]; T cells viability (#2)): 66% | viability at 4 days, 100 nM ([2]; T cells viability (#2)): 60% | viability at 4 days, 500 nM ([2]; T cells viability (#2)): 62% | viability at 4 days, 20 nM ([2]; T cells viability (#3)): 76% | viability at 4 days, 100 nM ([2]; T cells viability (#3)): 71% | viability at 4 days, 500 nM ([2]; T cells viability (#3)): 68% | concentration required to decrease myristoylation [3]: ~0.1 µM
